From paper PMC5951806, “Rapid labelling and covalent inhibition of intracellular native proteins using ligand-directed N-acyl-N-alkyl sulfonamide” (Nature Communications, 2018)

How the values were obtained:
[1] = target: GTP-binding nuclear protein RAN (RAN) (Homo sapiens, UniProt P62826); assay: TMT LC-MSMS of 11-labelled proteins; assay type: cell-based
From the text: (§1) The labelled proteins were enriched by immunoprecipitation with an anti-fluorescein antibody and tryptically digested in gel. Digested peptides were modified with Light- (L-), Medium- (M-), or Heavy- (H-) TMT reagent for samples treated with 11, 11 with PU-H71 (as competitive condition), or DMSO (vehicle), respectively, and mixed in a 1:1:1 ratio for LC-MSMS analysis. We performed three experimental replicates, in which proteins detected and quantified at least twice were selected as identified proteins. According to the related approach of Cravatt et al[44], the proteins having L/H (11/DMSO) ratios >5 were defined as 11-labelled proteins. […] On the basis of these criteria, we identified 6 proteins that react with 11, including three ligand-specific targets (Hsp90α (HSP90AA1), Hsp90β (HSP90AB1), and Grp94 (HSP90B1)) and three off-targets (Trifunctional enzyme subunit α (HADHA), Tubulin-α (TUBA1B), and ADP/ATP translocase 3 (SLC25A6)) (Fig. 5d, e and Supplementary Data 1). […] Grp94, a HSP90 isomer, was previously reported to be a PU-H71 specific target. TRAP-1, another Hsp90 isomer that can bind PU-H71, on the other hand, was not identified as 11-target by our criteria.
(§2) SKBR3 human breast cancer cells (2.0 × 10^6 cells) were seeded on a 10 cm dish and cultured for 3 days in McCoy’s 5A in a 5% CO2 humidified chamber at 37 °C. […] As competitive experiments, the labelling was conducted in the presence of PU-H71 (10 µM). After labelling, the cells were washed twice with PBS, and lysed with RIPA buffer. […] The supernatant was mixed with chilled acetone and incubated overnight at −80 °C. The protein precipitates were solubilized by sonication in 1 mL of RIPA buffer containing 1% SDS, and then 10-fold diluted with RIPA buffer to reduce SDS concentration to c.a. 0.1%. The protein solution (containing 1 mg of protein) was mixed with Protein G Sepharose 4 Fast Flow (GE Healthcare) and rotated at 4 °C for 1 h. After removal of the beads, the remaining supernatant was mixed with anti-fluorescein antibody (Abcam, ab19491, 7:10000) and rotated at 4 °C for 1 h, followed by addition of fresh Protein G Sepharose 4 Fast Flow and further incubation at 4 °C for 4 h. The beads were washed five times with RIPA buffer and once with PBS. Proteins were eluted from the beads by addition of 2 × sample buffer containing 100 mM DTT and boiling at 95 °C for 5 min. The samples were subjected to a 7.5% SDS–PAGE gel (Mini-PROTEAN TGX Gels, BioRad), and electrophoresed as the migration distance of dye front is about 10 mm. Each lane was excised (height, 10 mm), and treated with a 47.5% methanol / 47.5% pure water / 5% acetic acid for 20 min, a 50% methanol / 50% pure water for 10 min, and in pure water for 10 min. The gel pieces were dehydrated with 100% acetonitrile, and then swelled with 200 μL of 100 mM TEAB (triethylamine bicarbonate) buffer containing 10 mM DTT and heated at 56 °C for 30 min. The solutions were replaced with 200 µL of 100 mM TEAB buffer containing 55 mM iodoacetamide and incubated for 45 min in the dark. The gel pieces were washed with 100 mM TEAB buffer and dehydrated in acetonitrile. This step was repeated once. The gels were reswelled in 100 mM TEAB buffer containing 10 ng/μL Sequencing Grade Trypsin (Promega) and incubated overnight at 37 °C. To the gels, 50 μL of an extraction solution (50% acetonitrile, 0.1% TFA) was added. After 10 min incubation, the supernatants were collected to new tubes, and this process was repeated twice. Extracted peptides were dried in vacuo and reconstituted with 25 μL of 100 mM TEAB buffer.

[2] = target: elongation factor Tu, mitochondrial (TUFM) (Homo sapiens, UniProt P49411); assay: TMT LC-MSMS of 11-labelled proteins; assay type: cell-based
From the text: as §1, §2

[3] = target: T-complex protein 1 subunit theta (CCT8) (Homo sapiens, UniProt P50990); assay: TMT LC-MSMS of 11-labelled proteins; assay type: cell-based; settings: sheet Exp1, SKBR3 cells
From the text: as §1, §2

[4] = target: Pyruvate kinase PKM (PKM) (Homo sapiens, UniProt P14618); assay: TMT LC-MSMS of 11-labelled proteins; assay type: cell-based
From the text: as §1, §2

[5] = target: 2,4-dienoyl-CoA reductase, mitochondrial (DECR1) (Homo sapiens, UniProt Q16698); assay: TMT LC-MSMS of 11-labelled proteins; assay type: cell-based
From the text: as §1, §2

[6] = target: Argininosuccinate synthase (ASS1) (Homo sapiens, UniProt P00966); assay: TMT LC-MSMS of 11-labelled proteins; assay type: cell-based; settings: sheet Merged, SKBR3 cells
From the text: as §1, §2

proteins of SKBR3 cells = assay: Identification of 11-labelled proteins in live cells (TMT quantitative LC-MSMS), all proteins; assay type: cell-based, human; settings: 0.5 µM, 3 h, three ligand-specific targets and three off-targets
From the text: as §1
SKBR3 human breast cancer cells (2.0 × 10^6 cells) were seeded on a 10 cm dish and cultured for 3 days in McCoy’s 5A in a 5% CO2 humidified chamber at 37 °C. […]

[7] = sheet Exp1, SKBR3 cells, 11 0.5 µM 3 h vs DMSO
[8] = sheet Exp1, SKBR3 cells, 11 0.5 µM 3 h vs with PU-H71 10 µM
[9] = sheet Merged, SKBR3 cells, 11 0.5 µM 3 h vs DMSO
[10] = sheet Merged, SKBR3 cells, 11 0.5 µM 3 h vs with PU-H71 10 µM
[11] = 11 0.5 µM 3 h vs with PU-H71 10 µM

Chain of 2,4-dienoyl-CoA reductase, mitochondrial (DECR1) (Q16698 35-335): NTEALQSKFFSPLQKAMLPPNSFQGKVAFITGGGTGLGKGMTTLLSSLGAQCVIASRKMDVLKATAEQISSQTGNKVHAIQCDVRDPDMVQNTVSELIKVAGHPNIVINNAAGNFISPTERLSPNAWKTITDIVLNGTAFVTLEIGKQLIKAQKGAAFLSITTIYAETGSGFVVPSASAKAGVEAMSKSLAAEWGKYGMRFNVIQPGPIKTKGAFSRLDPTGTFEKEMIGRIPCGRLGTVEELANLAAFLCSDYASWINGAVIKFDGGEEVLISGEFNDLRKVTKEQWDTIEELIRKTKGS
Chain of Pyruvate kinase PKM (PKM) (P14618 whole entry): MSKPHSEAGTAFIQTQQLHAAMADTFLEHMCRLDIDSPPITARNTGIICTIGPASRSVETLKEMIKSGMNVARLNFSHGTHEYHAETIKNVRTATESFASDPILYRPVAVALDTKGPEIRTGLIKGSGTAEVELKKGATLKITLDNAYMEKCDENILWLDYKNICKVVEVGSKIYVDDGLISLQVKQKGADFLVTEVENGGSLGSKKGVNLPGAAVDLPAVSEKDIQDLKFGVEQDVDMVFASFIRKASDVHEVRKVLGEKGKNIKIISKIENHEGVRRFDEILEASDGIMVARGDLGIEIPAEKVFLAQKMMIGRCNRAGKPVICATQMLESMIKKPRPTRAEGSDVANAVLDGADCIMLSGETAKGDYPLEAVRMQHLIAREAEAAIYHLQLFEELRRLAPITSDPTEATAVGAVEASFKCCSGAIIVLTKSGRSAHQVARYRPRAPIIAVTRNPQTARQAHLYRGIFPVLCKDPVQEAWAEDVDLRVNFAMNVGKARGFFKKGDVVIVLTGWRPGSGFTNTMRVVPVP
Chain of Argininosuccinate synthase (ASS1) (P00966 whole entry): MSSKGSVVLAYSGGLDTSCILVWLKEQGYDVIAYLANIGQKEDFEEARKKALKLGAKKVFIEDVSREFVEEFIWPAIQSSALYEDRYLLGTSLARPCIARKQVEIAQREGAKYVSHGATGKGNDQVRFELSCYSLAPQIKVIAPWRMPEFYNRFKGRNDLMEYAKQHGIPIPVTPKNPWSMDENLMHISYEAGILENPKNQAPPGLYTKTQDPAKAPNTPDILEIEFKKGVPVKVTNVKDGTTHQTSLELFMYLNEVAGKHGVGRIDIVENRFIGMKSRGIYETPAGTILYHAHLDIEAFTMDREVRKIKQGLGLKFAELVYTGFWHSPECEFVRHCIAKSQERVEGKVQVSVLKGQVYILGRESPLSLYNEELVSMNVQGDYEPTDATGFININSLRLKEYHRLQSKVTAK

For `CC(=O)Oc1ccc2c(c1)Oc1cc(OC(C)=O)ccc1C21OC(=O)c2cc(C(=O)NCCOCCOCCNC(=O)CCCC(=O)N(CC#N)S(=O)(=O)c3ccc(C(=O)NCCCn4c(Sc5cc6c(cc5I)OCO6)nc5c(N)ncnc54)cc3)ccc21` [compound 11], the “Abundance Ratio: (11) / (11 with PU-H71)” value ([1]; Exp3, RAN) was 0.98, the “Abundance Ratio: (11) / (DMSO)” value ([1]; Exp3, RAN) was 2.764 and the “Abundances (Grouped): 11” value ([1]; Exp3, RAN) was 43.4. The “Abundances (Grouped): 11 with PU-H71” value ([1]; Exp3, RAN) was 44.3, the “Abundance Ratio: (11) / (DMSO)” value [1, 7] was 2.108 and the “Abundance Ratio: (11) / (11 with PU-H71)” value [1, 8] was 0.767. For the same molecule, the “Abundance Ratio: (11) / (11 with PU-H71)” value ([1]; sheet Exp2, RAN) was 0.778, the “Abundance Ratio: (11) / (DMSO)” value ([1]; sheet Exp2, RAN) was 2.161 and the “Abundances (Grouped): 11” value ([1]; sheet Exp2, RAN) was 78. For the same molecule, the “Abundances (Grouped): 11 with PU-H71” value ([1]; sheet Exp2, RAN) was 100.3, the “Abundance Ratio: (11) / (DMSO)” value [1, 9] was 2.599 and the “Abundance Ratio: (11) / (11 with PU-H71)” value [1, 10] was 0.946. The “Abundance Ratio: (11) / (11 with PU-H71)” value ([2]; sheet Exp2, TUFM) was 1.006, the “Abundance Ratio: (11) / (DMSO)” value ([2]; sheet Exp2, TUFM) was 2.039 and the “Abundances (Grouped): 11” value ([2]; sheet Exp2, TUFM) was 67.3. The “Abundances (Grouped): 11 with PU-H71” value ([2]; sheet Exp2, TUFM, with PU-H71) was 66.9, the “Abundance Ratio: (11) / (DMSO)” value [2, 9] was 2.024 and the “Abundance Ratio: (11) / (11 with PU-H71)” value [2, 10] was 0.818. For the same molecule, the “Abundance Ratio: (11) / (DMSO)” value ([3]; 11 0.5 µM 3 h vs DMSO) was 2.74, the “Abundance Ratio: (11) / (11 with PU-H71)” value [3, 11] was 0.821 and the “Abundance Ratio: (11) / (11 with PU-H71)” value ([4]; Exp3, PKM) was 1.148. The “Abundance Ratio: (11) / (DMSO)” value ([4]; Exp3, PKM) was 2.441, the “Abundances (Grouped): 11” value ([4]; Exp3, PKM) was 100.1 and the “Abundances (Grouped): 11 with PU-H71” value ([4]; Exp3, PKM) was 87.2. For the same molecule, the “Abundance Ratio: (11) / (DMSO)” value [4, 7] was 3.506, the “Abundance Ratio: (11) / (11 with PU-H71)” value [4, 8] was 0.917 and the “Abundance Ratio: (11) / (11 with PU-H71)” value ([4]; sheet Exp2, PKM) was 0.916. For the same molecule, the “Abundance Ratio: (11) / (DMSO)” value ([4]; sheet Exp2, PKM) was 2.005, the “Abundances (Grouped): 11” value ([4]; sheet Exp2, PKM) was 121.5 and the “Abundances (Grouped): 11 with PU-H71” value ([4]; sheet Exp2, PKM) was 132.6. For the same molecule, the “Abundance Ratio: (11) / (DMSO)” value [4, 9] was 3.4, the “Abundance Ratio: (11) / (11 with PU-H71)” value [4, 10] was 0.922 and the “Abundance Ratio: (11) / (DMSO)” value [5, 7] was 2.538. For the same molecule, the “Abundance Ratio: (11) / (11 with PU-H71)” value [5, 8] was 0.793, the “Abundance Ratio: (11) / (11 with PU-H71)” value ([5]; sheet Exp2, DECR1) was 0.758 and the “Abundance Ratio: (11) / (DMSO)” value ([5]; sheet Exp2, DECR1) was 1.823. The “Abundances (Grouped): 11” value ([5]; sheet Exp2, DECR1) was 59.8, the “Abundances (Grouped): 11 with PU-H71” value ([5]; sheet Exp2, DECR1, with PU-H71) was 78.9 and the “Abundance Ratio: (11) / (DMSO)” value [5, 9] was 2.151. For the same molecule, the “Abundance Ratio: (11) / (11 with PU-H71)” value [5, 10] was 0.775, the “Abundance Ratio: (11) / (DMSO)” value ([6]; 11 0.5 µM 3 h vs DMSO) was 2.736 and the “Abundance Ratio: (11) / (11 with PU-H71)” value [6, 11] was 0.837. For the same molecule, the “number of proteins that react with 11 (L/H ratios >5)” value (proteins of SKBR3 cells) was 6.
